Patent US20140336182A1, “Aurora Kinase Modulators and Method of Use” (Amgen Inc., priority 2013, published 2014)

What follows are compounds tested on HeLa cells (assay: HeLa cell 24 hr ploidy assay (DNA content)). Settings: HeLa cells, 4N ploidy, average, read-out: 24h_4NPloidy EC50_IP (uM Avg).
Assay type: cell-based
Procedure, shortened: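 HeLa cells (1×10^4/well, MEM+10% FBS) cultured 24 h, treated with serially diluted compounds (0.25% DMSO final), then fixed, permeabilized and stained with Hoechst 33342 (0.5 ug/ml). Imaging quantified % 4N and >4N cells; EC50 IP and EC50 transit derived from dose curves.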

| EC50 [µM] | SMILES |
| --- | --- |
| 0.002 | Clc1ccc(-c2nnc(Nc3ccc(Sc4ccnc5cccnc45)cc3)c3ccccc23)cc1 [Example 33, N-(4-(1,5-naphthyridin-4-ylthio)phenyl)-4-(4-chlorophenyl)phthalazin-1-amine] |

Same assay, conditions: Homo sapiens, HeLa, 4N ploidy, average, read-out: 24h_4NPloidy EC50_IP (uM Avg)

| EC50 [µM] | SMILES |
| --- | --- |
| 0.028 | CCc1cc(-c2ccccc2)nnc1Nc1ccc(Oc2ccnc3cc(C(N)=O)ccc23)cc1 [compound 49, 4-((4-((4-ethyl-6-phenyl-3-pyridazinyl)amino)phenyl)oxy)-7-quinolinecarboxamide] |
| 0.017 | COc1cc2nccc(Oc3ccc(Nc4nnc(-c5cccc(C)n5)c5ccccc45)cc3)c2cc1OC [compound 150] |
| 0.02 | COc1cc2nccc(Oc3ccc(Nc4nnc(-c5cccc(CO)n5)c5ccccc45)cc3)c2cc1OC [compound 112] |
| 0.004 | Cc1ccc(-c2nnc(Nc3ccc(Oc4ccnc5cc(C#N)ccc45)cc3)c3ccccc23)s1 [compound 162] |
| 0.057 | COc1cnc2c(Oc3ccc(Nc4nnc(-c5ccc(C(F)(F)F)cc5)c5ccccc45)cc3)ccnc2c1 [compound 146, N-(4-((7-(methyloxy)-1,5-naphthyridin-4-yl)oxy)phenyl)-4-(4-(trifluoromethyl)phenyl)-1-phthalazinamine] |
| > 1.2 | COc1cc2nccc(Oc3ccc(Nc4ncc(-c5ccccc5)c5ccccc45)cc3)c2cn1 [compound 145] |
| 0.124 | COc1cc2nccc(Oc3ccc(Nc4nnc(-c5cccc(C)n5)c5ccccc45)cc3)c2cn1 [compound 110] |
| 0.08 | COc1cnc2c(Oc3ccc(Nc4nnc(-c5ccc(C(C)(C)C)cc5)c5ccccc45)cc3)ccnc2c1 [Example 38, 4-(4-tert-butylphenyl)-N-(4-(7-methoxy-1,5-naphthyridin-4-yloxy)phenyl)phthalazin-1-amine] |
| 0.006 | Cc1ccc(-c2nnc(Nc3ccc(Oc4ccnc5cc(C#N)ccc45)cc3)c3ccccc23)cc1 [compound 88] |

Same assay, conditions: Homo sapiens, HeLa, HeLa cells, 4N ploidy, average, read-out: 24h_4NPloidy EC50_IP (uM Avg)

| EC50 [µM] | SMILES |
| --- | --- |
| 0.191 | CCc1cc(-c2cccc(Cl)c2)nnc1Nc1ccc(Oc2ccnc3cc(OC)cnc23)cc1 [compound 335] |
| > 1.2 | COCc1cc(-c2ccccc2)nnc1Nc1ccc(Oc2ccnc3cc(OC)cnc23)cc1 [compound 593] |
| 0.003 | Clc1ccc(-c2nnc(Nc3ccc(Sc4ccnc5ccccc45)cc3)c3ccccc23)nc1 [compound 365] |
| 0.061 | COc1cnc2c(Oc3ccc(Nc4nnc(-c5ccccc5)c5ccsc45)cc3)ccnc2c1 [compound 218, N-(4-((7-(methyloxy)-1,5-naphthyridin-4-yl)oxy)phenyl)-4-phenylthieno[2,3-d]pyridazin-7-amine] |
| 0.08 | COc1cnc2c(Oc3ccc(Nc4nnc(-c5cnc6[nH]ccc6c5)c5ccccc45)cc3)ccnc2c1 [compound 280] |
| 0.049 | COc1cnc2c(Sc3ccc(Nc4nnc(N5CCC(F)(F)CC5)c5ccccc45)cc3)ccnc2c1 [compound 531] |
| 0.059 | CCOc1nc(-c2nnc(Nc3ccc(Oc4ccnc5cc(OC)cnc45)cc3)c3ccccc23)cs1 [compound 175] |
| 0.387 | c1ccc(-c2nnc(Nc3ccc(Oc4ccnc5ccc(N6CCOCC6)cc45)cc3)c3ccccc23)cc1 [compound 264] |
| 0.014 | COc1cnc2c(Sc3ccc(Nc4nnc(N5CCN(C)CC5)c5ccccc45)cc3)ccnc2c1 [compound 503] |
| 0.079 | FC(F)(F)Oc1ccc2c(Sc3ccc(Nc4nnc(-c5ccccc5)c5ccccc45)cc3)ccnc2c1 [compound 497] |
| 0.036 | Cc1ccc(-c2nnc(Nc3ccc(Sc4ccnc5ccoc45)cc3)c3ccccc23)nc1 [compound 482] |
| 0.024 | COCCOc1ccc(-c2nnc(Nc3ccc(Sc4ccnc5cc(OC)cnc45)cc3)c3ccccc23)cc1 [compound 474] |
| 0.008 | COc1ccc(-c2nnc(Nc3ccc(Sc4ccnc5cccnc45)cc3)c3ccccc23)cn1 [compound 509] |
| 0.001 | c1ccc(-c2nnc(Nc3ccc(Oc4ccnc5cc(-c6cn[nH]c6)ccc45)cc3)c3ccccc23)cc1 [compound 417] |
| > 1.2 | COc1cnc2c(Oc3ccc(Nc4nnc(-c5cccc(C(=O)N(C)C)c5)c5ccccc45)cc3)ccnc2c1 [compound 226] |
| 0.016 | Clc1cccc(-c2nnc(Nc3ccc(Sc4ccnc5ccsc45)cc3)c3ccccc23)c1 [compound 518] |
| 0.053 | N#Cc1cc2nccc(Sc3ccc(Nc4nnc(-c5ccc(Cl)cc5)c5ccccc45)cc3)c2s1 [compound 351] |
| 0.124 | COc1ccc2nccc(Sc3ccc(Nc4nnc(-c5cccc(C)n5)c5ccccc45)cc3)c2n1 [compound 419] |
| 0.004 | COc1cnc2c(Sc3ccc(Nc4nnc(-c5ccc(C)nc5)c5ccccc45)cc3)ccnc2c1 [compound 588] |
| 0.023 | Cc1cc2nccc(Sc3ccc(Nc4nnc(-c5ccc(Cl)cn5)c5ccccc45)cc3)c2s1 [compound 560] |
| 0.074 | CCc1cc(-c2ccc(C)s2)nnc1Nc1ccc(Oc2ccnc3cc(OC)cnc23)cc1 [compound 205, 4-ethyl-N-(4-((7-(methyloxy)-1,5-naphthyridin-4-yl)oxy)phenyl)-6-(5-methyl-2-thienyl)-3-pyridazinamine] |
| 0.227 | c1ccc(-c2nnc(Nc3ccc(Oc4ccnc5ccsc45)cc3)c3ccccc23)cc1 [compound 251] |
| > 1.2 | COc1cnc2c(Oc3ccc(Nc4nnc(-c5ccc(Cl)cc5)c5c4CCC5)cc3)ccnc2c1 [compound 411] |
| 0.061 | COc1cnc2c(Oc3ccc(Nc4nnc(-c5ccc(OC)c(F)c5)c5ccccc45)cc3)ccnc2c1 [compound 227] |
| 0.115 | O=c1ccc2nccc(Oc3ccc(Nc4nnc(-c5ccc(Cl)cc5)c5ccccc45)cc3)c2[nH]1 [compound 569] |

| EC50 [µM] | SMILES |
| --- | --- |
| > 1.2 | CS(=O)(=O)CCOc1ccc2nccc(Sc3ccc(Nc4nnc(-c5ccc(Cl)cc5)c5ccccc45)cc3)c2c1 [Example 390, 4-(4-Chlorophenyl)-N-(4-(6-(2-(methylsulfonyl)ethoxy)quinolin-4-ylthio)phenyl) phthalazin-1-amine] |
| 0.088 | Cc1noc(-c2cc3nccc(Oc4ccc(Nc5nnc(-c6ccc(Cl)cc6)c6ccccc56)cc4)c3s2)n1 [compound 286] |
| 0.007 | Clc1ccc(-c2nnc(Nc3ccc(Sc4ccnc5ccncc45)cc3)c3ccccc23)nc1 [compound 430] |
| 0.044 | Cc1ccc(-c2ccc3c(Oc4ccc(Nc5nnc(-c6ccccc6)c6ccccc56)cc4)ccnc3c2)o1 [compound 344] |
| 0.023 | CCc1cc(-c2ccc(C)cc2)nnc1Nc1ccc(Oc2ccnc3cc(OC)cnc23)cc1 [compound 307] |
| 0.009 | COc1cc2nccc(Sc3ccc(Nc4nnc(-c5cc(C)cs5)c5ccccc45)cc3)c2cn1 [compound 494] |
| 0.041 | COc1cnc2c(Sc3ccc(Nc4nnc(-c5ccccc5)c5ccccc45)cn3)ccnc2c1 [compound 413] |
| ≥ 1.2 | Clc1ccc(-c2nnc(Nc3ccc(Sc4ccnc5ccccc45)cc3)c3ccccc23)cc1 [compound 333] |
| 0.039 | COc1cnc2c(Oc3ccc(Nc4nnc(-c5ccccc5)c5c4CCC5)cc3)ccnc2c1 [compound 367] |
| 0.017 | Cc1ccc(-c2nnc(Nc3ccc(Sc4ccnc5ccncc45)cc3)c3ccccc23)nc1 [compound 433] |
| 0.113 | COc1cc(OC)c2c(Sc3ccc(Nc4nnc(-c5cc(C)cs5)c5ccccc45)cc3)ccnc2c1 [compound 439] |
| < 0.0023 | COc1cnc2c(Oc3ccc(Nc4nnc(-c5ccc(C)c(O)c5)c5ccccc45)cc3)ccnc2c1 [compound 449] |
| 0.014 | COc1ccc2nccc(Sc3ccc(Nc4nnc(-c5ccc(Cl)cc5)c5ccccc45)cc3)c2c1 [compound 315, 4-(4-chlorophenyl)-N-(4-(6-methoxyquinolin-4-ylthio)phenyl)phthalazin-1-amine] |
| > 1.2 | COc1cnnc(Nc2ccc(Oc3ccnc4cc(OC)cnc34)cc2)c1 [compound 456] |
| 0.006 | COc1cnc2c(Sc3ccc(Nc4nnc(-c5ccc(C)c(OC)c5)c5ccccc45)cc3)ccnc2c1 [compound 529] |
| 0.1 | COCCOc1ccc(-c2nnc(Nc3ccc(Sc4ccnc5cc(OC)cnc45)cc3)c3ccccc23)cc1OCCOC [compound 473] |
| 0.001 | COCCOc1cc2nccc(Oc3ccc(Nc4nnc(-c5ccccc5)c5ccccc45)cc3)c2cc1OC [Example 393, N-(4-(6-Methoxy-7-(2-methoxyethoxy)quinolin-4-yloxy)phenyl)-4-phenylphthalazin-1-amine] |
| 0.004 | COc1cnc2c(Sc3ccc(Nc4nnc(-c5cc(C)cs5)c5ccccc45)cc3)ccnc2c1 [compound 271, N-(4-(7-methoxy-1,5-naphthyridin-4-ylthio)phenyl)-4-(4-methylthiophen-2-yl)phthalazin-1-amine] |
| 0.017 | CCc1cc(-c2ccc(C)cc2)nnc1Nc1ccc(Sc2ccnc3cc(OC)cnc23)cc1 [compound 322] |
| 0.011 | COc1ccc2nccc(Oc3ccc(Nc4nnc(-c5ccc(Cl)cn5)c5ccccc45)cc3)c2c1 [compound 278] |
| 0.115 | Clc1ccc(-c2nnc(Nc3ccc(Oc4ncnc5ccsc45)cc3)c3ccccc23)cc1 [compound 591] |
| 0.054 | Fc1cc(F)c2c(Oc3ccc(Nc4nnc(-c5ccccc5)c5ccccc45)cc3)ccnc2c1 [compound 276] |
| 0.229 | COc1cnc2c(Oc3ccc(Nc4nnc(N5CCSCC5)c5ccccc45)cc3)ccnc2c1 [compound 337] |
| 0.019 | Cc1ccc(-c2nnc(Nc3ccc(Sc4ccnc5cc(C#N)sc45)cc3)c3ccccc23)cn1 [compound 461] |
| 0.005 | COc1cc(F)cc2nccc(Oc3ccc(Nc4nnc(-c5ccc(Cl)cc5)c5ccccc45)cc3)c12 [compound 437] |

Same assay, conditions: Homo sapiens, HeLa, HeLa cells, 4N ploidy, given as class symbol, read-out: 24h_4NPloidy EC50_IP (uM Avg)

| EC50 [µM] | SMILES |
| --- | --- |
| < 0.1 | Fc1cc(F)c2c(Sc3ccc(Nc4nnc(-c5ccccc5)c5ccccc45)cc3)ccnc2c1 [compound 295] |
